Measurements: patent publication US20220380408A1, “COMPOSITIONS AND METHODS FOR INHIBITING NEOINTIMAL FORMATION” (University of Virginia Patent Foundation, priority 2019, published 2022)
Entries after “also recorded” stand apart in the source; their conditions may differ. Each block holds one molecule with its values, some of them ahead of it. Ends that are not written are not given here. * marks the point of attachment. Stearoyl = CCCCCCCCCCCCCCCCCC(=O)*

How the values were obtained:
[1] = tested on: Human coronary artery smooth muscle cells; test: EDU proliferation by flow cytometry in cultured human coronary artery smooth muscle cells; format: cell-based; details: for proliferation (EDU incorporation, flow cytometry): hCASMC incubated with agent for 48 hours (PGPC 100 μg, POVPC 100 μg, PDGF 20 ng)
Experimental: (§1) Protein expression and interaction in cultured human coronary artery smooth muscle cells. Human coronary artery smooth muscle cells (Thermo Fisher Scientific, Inc., Waltham, Massachusetts, United States of America), were cultured until confluent in M231 media containing growth supplement (Thermo Fisher Scientific, Low Serum Growth Supplement Kit (LSGS) kit) as well as 20% fetal bovine serum (FBS). Prior to incubations, media was switched to low serum media (M231+2% FBS) for 3 days as previously described (Lohman et al., 2016). Cells were then incubated with oxidized phospholipids 1-palmitoyl-2-glutaroyl-sn-glycero-3-phosphorylcholine (PGPC, 100 μg) and 1-palmitoyl-2-oxovaleroyl-sn-glycero-3-phosphorylcholine (POVPC 100 μg), or the growth factor platelet derived growth factor beta (PDGF, 20 ng) as we have previously described (Johnstone et al. 2009; Johnstone et al. 2012) for 48 hours prior to harvesting and analysis for Western blotting and co-immunoprecipitation and EDU proliferation by flow cytometry as previously described (Johnstone et al. 2012). For peptide incubations, peptides were pre-incubated for 30 minutes with cells in fresh media prior to adding any further treatments.
However, the ability to bind with, and therefore activate, cyclin D was inhibited in the presence of PGPC (see FIG. 2A). […] Taken together, this identified Cx43 phosphorylation status as a molecular switch that controlled cellular proliferation (MAPK-Cx43) or quiescence (PKC-Cx43), a model that is depicted in see FIG. 2C.
(§2) Peptides representing sequences within the C-terminus of human Cx43, designed by peptide array, inhibited proliferation of human smooth muscle cells (see FIGS. 3A-3F). Cells were pretreated for 30 minutes with peptides, prior to incubation with PDGF for 2 days.

cyclin D = test: Co-immunoprecipitation of Cx43 with cyclin D in human coronary artery smooth muscle cells; format: cell-based; details: hCASMC
Experimental: as §1
However, the ability to bind with, and therefore activate, cyclin D was inhibited in the presence of PGPC (see FIG. 2A). […]

[2] = tested on: human saphenous vein tissues; test: Ex vivo human saphenous vein explant model (HUSVEM); format: cell-based; details: PDGF 50 ng/mL, 14 days, peptide 30 μM, everolimus 10 nM
Experimental: Ex vivo, human saphenous vein explant model (HUSVEM). The translational relevance of the peptides was assessed in an ex vivo, human saphenous vein explant model (HUSVEM) based on previously validated protocols (Baker et al. 1997; Dreifaldt et al. 2013; Loesch, Dashwood & Souza, 2006; George et al., 1996). Briefly, human veins were obtained as excess tissue from coronary artery bypass surgeries. The protocol was assessed by the Institutional Review Board (IRB) of the University of Virginia (Charlottesville, Va., United States of America), and no IRB protocol was required. Human saphenous veins were opened laterally, cut into 10 mm sections, and pinned with the endothelial side facing up on SYLGARD® brand silicone curing agent-coated plates in RMPI media containing 2% FBS. After 1 hour, cells were incubated with either control peptide or CycliCx peptide (30 μM; LDPAKDCGDQKYAY; SEQ ID NO: 1) or everolimus (10 nM; Sigma Aldrich) for a further 60 minutes, prior to adding PDGF (50 ng/mL). Media was changed daily with fresh media containing peptides or everolimus and PDGF. At the end of 14 days media was removed and tissues fixed in 4% PFA for 24 hours then washed in 70% ethanol, prior to embedding in 3% agarose. Samples were then processed by routine paraffin embedding and stained using hematoxylin and eosin and van Gieson stains. Comparisons of neointmal growth were made, where the uppermost layer of elastin was used to identify the start region for formed neointima. Neointimal areas were calculated across 10 serial sections from each tissue and averaged. Analysis of PDGF treated vessels to peptide and everolimus treated tissues were made.
An exemplary CycliCx peptide (LDPAKDCGDQKYAY; SEQ ID NO: 1) was applied to human saphenous veins in ex vivo preparations for 2 weeks in the presence of PDGF and compared to everolimus, an agent used in drug eluting stents.

mouse carotid arteries = test: Mouse carotid ligation neointimal formation model; format: in vivo; details: for Neointimal/media Ratio (±SEM): carotid ligation, 200 μg peptide in pluronic, 2 weeks
Experimental: Mouse carotid surgeries. Carotid ligation and pluronic application surgeries were performed as described (Johnstone et al. 2009; Johnstone et al. 2012). Briefly, mice were anesthetized by isoflurane and the left common carotid artery was exposed and carefully freed from surrounding tissue. A 6/0 silk suture was run under the carotid artery distal to the bifurcation site and two consecutive, flat square knots were tied tight enough to restrict blood flow. Control mice were surgical controls, where carotid artery was exposed and freed of surrounding tissue as described above but no suture was applied. Following ligation either 35% F127 pluronic gel, CycliCx peptide (200 μg in pluronic; LDPAKDCGDQKYAY; SEQ ID NO: 1) or control peptide (200 μg in pluronic; AYFNGCSSPTAPLDP; SEQ ID NO: 3) was applied to the outside of the carotid wall and surgical wound closed. At 2 weeks after surgery, mice were euthanized with an intraperitoneal injection of 60-90 mg/kg pentobarbital. Mice were perfused with 4% paraformaldehyde (PFA) and both treated (left common) and control (right common) carotids removed and stored in 4% PFA overnight for whole mount analysis or immunosectioning. For in vivo cell proliferation studies, mice were preinjected with 5-ethynyl-2′-deoxyuridine (EDU) prior to surgery and carotids were removed post-treatment for whole mount or tissue cross section analysis of EDU incorporation into proliferating cells. For analysis of neointima formation in vessels, areas corresponding to the media (containing vascular smooth muscle cells (VSMC)), neointima (containing proliferating VSMC) and lumen (void area) were measured on Haemotoxylin and Eosin (H&E) stained cross sections of carotid vessels and analyzed by Image J, image analysis software. The ratio of media:neointima was calculated.
An exemplary CycliCx peptide (LDPAKDCGDQKYAY; SEQ ID NO: 1) was applied to the carotids of mice for 14 days after placement of a suture to induce neointimal formation (FIG. 4A). In both ligation only and ligation with peptide, extensive neointima formed. […] Effects were tested in both male and female mice, and no sex-specific differences were noted (FIG. 4B and Table 1).

cyclin E [3] = target: T1, cyclin E (Homo sapiens, UniProt P24864); test: Peptide array (truncation array) probed with cyclin E protein; format: binding; design: made in house; details: based on mouse Cx43 sequence; cyclin E 10 μg/mL overnight
T1 sequence (P24864 whole entry, the tested form may be a part): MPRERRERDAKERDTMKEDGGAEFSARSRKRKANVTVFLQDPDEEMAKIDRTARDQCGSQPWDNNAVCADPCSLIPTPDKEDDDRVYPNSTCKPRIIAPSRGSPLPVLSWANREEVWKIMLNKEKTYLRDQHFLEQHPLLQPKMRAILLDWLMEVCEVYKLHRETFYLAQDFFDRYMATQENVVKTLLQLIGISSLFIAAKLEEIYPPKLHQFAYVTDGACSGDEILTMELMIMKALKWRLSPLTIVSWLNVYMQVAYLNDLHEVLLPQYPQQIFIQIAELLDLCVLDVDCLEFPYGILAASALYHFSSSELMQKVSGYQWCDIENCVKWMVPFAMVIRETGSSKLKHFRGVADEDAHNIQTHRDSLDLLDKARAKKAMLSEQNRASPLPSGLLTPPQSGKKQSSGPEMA
Excerpt: Peptide array. The C-terminus of the human Cx43 polypeptpide (Cx43-CT) is about 150 amino acids (a.a.) with a high abundance (>10%) of post-translationally modified sites (Aasen et al., 2018). This means that hundreds of combinations are required to delineate binding parameters. Using novel peptide array technology, the sites of interaction between connexin 43 (Cx43) and cyclin E were mapped. Immobilized peptide libraries corresponding to 25-residue regions of Cx43-CT were designed, synthesized, and nitrocellulose arrays generated. To test the requirement for phosphorylation, specific residues were replaced to mimic known protein interacting states (e.g., MAPK-Cx43 serines 255/262/279/282; see Johnstone et al. 2012). The role for phosphorylation was assayed in binding using single and multiple residue replacements. These included wild-type serine (S), native phospho-serine (pS), aspartate (D, phospho-mimic), or alanine (A, phospho-null) residues. Recombinant human cyclin E protein was generated for incubation with arrays (Johnstone et al. 2012). […] Signal was then detected using electrochemiluminescence (ECL) detection reagents as per manufacturer protocol (PIERCE™ brand, available from Thermo Fisher Scientific, Inc., Waltham, Mass., United States of America) and blots were scanned for analysis. […]

cyclin E [4] = target: T1, cyclin E; test: Co-immunoprecipitation of Cx43/cyclin E interaction in human SMC; format: cell-based; design: host or cells: human coronary artery smooth muscle cells; details: versus no peptide and scrambled peptide
Experimental: as §1
Peptides representing sequences within the C-terminus of human Cx43, designed by peptide array, inhibited proliferation of human smooth muscle cells (see FIGS. 3A-3F). […]

Cx43 = test: Western blot of Cx43 phosphorylation status in human coronary artery smooth muscle cells; format: cell-based; details: hCASMC
Experimental: as §1, §2

[5] = tested on: triple negative breast cancer (Hs578T); test: WST-1 (viability/MTT) assay of cancer cell proliferation, Hs578T; format: cell-based, human; details: single treatment 30 μM at day 0; versus control peptide
Experimental: (§3) Two cancer cell lines originating from human melanoma (A375-MA2) and triple negative breast cancer (Hs578T) were used to assess the role of CycliCx in inhibiting proliferation. 500 cells per well were cultured in a 96-well plate containing 100 μl of medium. The next day (Day 0), 30 μM of CycliCx peptide or control peptide was added to the cells. Starting from Day 0, 10 μl of WST-1 reagent (viability/MTT) was added to each well and incubated for 75 minutes. Absorbance was measured at 450 nm. Data are presented in FIGS. 6B (A375-MA2) and 6C (Hs578T) as mean±SEM. p<0.05 by two way ANOVA.

[6] = tested on: human melanoma (A375-MA2); test: WST-1 (viability/MTT) assay of cancer cell proliferation, A375-MA2; format: cell-based; details: single treatment 30 μM at day 0; versus control peptide
Experimental: as §3

Molecule: CCCCCCCCCCCCCCCC(=O)OC[C@H](COP(=O)([O-])OCC[N+](C)(C)C)OC(=O)CCCC(=O)O [PGPC, 1-palmitoyl-2-glutaroyl-sn-glycero-3-phosphorylcholine, reference compound]
proliferation (EDU incorporation, flow cytometry) [1]: decreased proliferation
ability of Cx43 to bind with, and therefore activate, cyclin D (cyclin D): inhibited

Molecule: CCCCCCCCCCCCCCCC(=O)OC[C@H](COP(=O)([O-])OCC[N+](C)(C)C)OC(=O)CCCC=O [POVPC, 1-palmitoyl-2-oxovaleroyl-sn-glycero-3-phosphorylcholine, reference compound]
proliferation (EDU incorporation, flow cytometry) [1]: increased proliferation

Molecule: CO[C@H]1C[C@@H]2CC[C@@H](C)[C@@](O)(O2)C(=O)C(=O)N2CCCC[C@H]2C(=O)O[C@H]([C@H](C)C[C@@H]2CC[C@@H](OCCO)[C@H](OC)C2)CC(=O)[C@H](C)/C=C(\C)[C@@H](O)[C@@H](OC)C(=O)[C@H](C)C[C@H](C)/C=C/C=C/C=C/1C [everolimus, reference compound]
neointimal formation in human saphenous veins [2]: inhibited neointimal formation

Molecule: AYFNGCSSPTAPLDP [Control Pep, non-targeting control peptide, reference compound]
neointimal formation in human saphenous veins [2]: neointima were identified
Neointimal/media Ratio (±SEM) (mouse carotid arteries; female mice): 1.017 ± 0.3869
Neointimal/media Ratio (±SEM) (mouse carotid arteries; male mice): 0.6690 ± 0.1111

sequence required for cyclin E binding in truncation-based array (cyclin E [3]): minimum sequence
Molecule: DPSKDCGDPKYAY

interactions with cyclin E (co-immunoprecipitation) (cyclin E [4]): significantly reduced
Molecule: LDPSKDCGDPKYAY [pep3(mouse), CycliCx peptide with mouse Cx43 residues at positions 257 and 263]
PKC-phosphorylated Cx43 species (western blot, pS368) (Cx43): predominantly induced
phosphorylation status of Cx43 (western blot) (Cx43): altered
phosphorylation status of Cx43 (western blot) (Cx43; listed as pep3): significantly altered

Molecule: stearate-LDPAKDCGDQKYAY (Stearoyl-LDPAKDCGDQKYAY) [CycliCx]
proliferation of Hs578T cells [5]: significantly inhibit proliferation
EDU incorporation (proliferation) of human smooth muscle cells ([1]; peptide pretreatment 30 minutes, then PDGF for 2 days, versus PDGF alone or Scr peptide): reduced
neointimal formation in human saphenous veins [2]: inhibited neointimal formation; also recorded: completely inhibited
Neointimal/media Ratio (±SEM) (mouse carotid arteries; female mice): 0.0060 ± 0.0379
Neointimal/media Ratio (±SEM) (mouse carotid arteries; male mice): 0.0110 ± 0.0055
neointimal formation induced by suture ligation (mouse carotid arteries; mouse carotid, peptide applied for 14 days): completely inhibited; also recorded: prevented
proliferation of A375-MA2 cells [6]: significantly inhibit proliferation

B1: platelet derived growth factor beta (protein, UniProt P01127 82-190, looked up)
Platelet-derived growth …: SLGSLTIAEPAMIAECKTRTEVFEISRRLIDRTNANFLVWPPCVEVQRCSGCCNNRNVQCRPTQVQLRPVQVRKIEIVRKKPIFKKATVTLEDHLACKCETVAAARPVT
notes: growth factor promoting MAPK phosphorylation of Cx43
proliferation (EDU incorporation, flow cytometry) [1]: increased proliferation
